Data taken from US10722501B2 (BAYER AKTIENGESELLSCHAFT, priority 2016, dated 2020).

Target: T1, recombinant full-length human prolyl endopeptidase (PREP) (Homo sapiens, UniProt P48147)
T1 construct: To recombinant full-length human prolyl endopeptidase (PREP, R&D-Systems, 4308-SE); purchased R&D-Systems 4308-SE
T1 sequence (P48147 1-710): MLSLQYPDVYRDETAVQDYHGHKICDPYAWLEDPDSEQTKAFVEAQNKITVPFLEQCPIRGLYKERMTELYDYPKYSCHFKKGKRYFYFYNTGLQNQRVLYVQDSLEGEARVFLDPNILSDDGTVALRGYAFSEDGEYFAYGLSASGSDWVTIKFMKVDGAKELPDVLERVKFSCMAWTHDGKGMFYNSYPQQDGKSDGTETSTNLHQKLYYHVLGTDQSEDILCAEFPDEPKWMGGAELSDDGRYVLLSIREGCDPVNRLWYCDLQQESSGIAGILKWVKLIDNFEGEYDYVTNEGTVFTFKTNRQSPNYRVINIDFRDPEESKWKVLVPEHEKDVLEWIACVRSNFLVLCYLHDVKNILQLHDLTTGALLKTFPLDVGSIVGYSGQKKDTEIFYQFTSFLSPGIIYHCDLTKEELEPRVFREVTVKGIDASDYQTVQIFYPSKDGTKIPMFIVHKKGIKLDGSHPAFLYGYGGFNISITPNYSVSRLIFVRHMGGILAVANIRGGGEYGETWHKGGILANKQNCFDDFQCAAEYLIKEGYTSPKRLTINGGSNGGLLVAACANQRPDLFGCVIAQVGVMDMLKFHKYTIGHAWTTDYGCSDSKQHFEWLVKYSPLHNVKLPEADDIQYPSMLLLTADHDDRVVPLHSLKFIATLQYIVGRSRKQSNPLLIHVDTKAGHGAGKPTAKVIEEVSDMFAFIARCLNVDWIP
Assay: Biochemical human prolyl endopeptidase (PREP) assay with fluorescently labelled substrate
Settings: substrate Z-Gly-Pro-AMC 50 μM, 32° C., 60 min; some as mean values from multiple independent determinations
Procedure: B-1 Biochemical Human Prolyl Endopeptidase (PREP) Assay for Identification of Inhibitors of PREP Activity Using a Fluorescently Labelled Substrate Principle of the Assay:
The enzymatic conversion of the fluorescent peptide substrate was observed on the basis of the measurement of the fluorescence intensity. The enzyme activity was determined by the ascertaining of the initial slope in the increase in fluorescence. Compounds that inhibit PREP were identified on the basis of the decrease in the initial slope compared to a reaction mixture without test compound.
Determination of Activity:
IC50 values were determined by the plotting of the percentage PREP activity against the concentration of the test substance by interpolation.
To recombinant full-length human prolyl endopeptidase (PREP, R&D-Systems, 4308-SE; final concentration, for example, 0.4 nM, volume: 25 μl) in reaction buffer (50 mM Tris-HCl, pH 7.5; 150 mM NaCl; 0.13% BSA, 5 mM EDTA, 3 mM GSH, 0.005% Brij-35) was added a test compound (in DMSO, in an appropriate final concentration range from 1 nM to 30 μM, volume: 1 μl) in a well of a 384-well microtitre plate. The reaction was initiated by adding the substrate Z-Gly-Pro-AMC (final concentration 50 μM; Z=carboxybenzyl; AMC=7-amino-4-methylcoumarin, volume: 25 μl). The progress of the PREP reaction was observed by measuring the fluorescence intensity in a Tecan SAFIRE II plate spectrophotometer at 32° C. over a period of 60 min (excitation wavelength: 360 nm, emission wavelength: 465 nm).
Table B-1 below collates the IC50 values thus obtained from the human prolyl endopeptidase assay for individual working examples of the invention (some as mean values from multiple independent individual determinations).

| Structure (SMILES) | IC50 |
| --- | --- |
| O=C(C1CCCc2nn(Cc3ccc(Cl)c(Cl)c3)c(=O)n21)N1CCCC1 (racemic) [Example 39, (5RS)-2-(3,4-Dichlorobenzyl)-5-(pyrrolidin-1-ylcarbonyl)-5,6,7,8-tetrahydro[1,2,4]triazolo[4,3-a]pyridin-3(2H)-one] | 0.55 nM |
| O=C(C1CCCc2nn(CC3CCC(C(F)(F)F)CC3)c(=O)n21)N1CCCC1 (racemic) [Example 40, (5RS)-5-(Pyrrolidin-1-ylcarbonyl)-2-{[4-(trifluoromethyl)cyclohexyl]methyl}-5,6,7,8-tetrahydro[1,2,4]triazolo[4,3-a]pyridin-3(2H)-one] | 5.2 nM |
| O=C(C1CCCc2nn(CC3CCC(F)(F)CC3)c(=O)n21)N1CCCC1 (racemic) [Example 41, (5RS)-2-[(4,4-Difluorocyclohexyl)methyl]-5-(pyrrolidin-1-ylcarbonyl)-5,6,7,8-tetrahydro[1,2,4]triazolo[4,3-a]pyridin-3(2H)-one] | 13 nM |
| Cc1ccc(Cn2nc3n(c2=O)C(C(=O)N2CCC(F)(F)C2)CCC3)cc1 (racemic) [Example 42, (5RS)-5-[(3,3-Difluoropyrrolidin-1-yl)carbonyl]-2-(4-methylbenzyl)-5,6,7,8-tetrahydro[1,2,4]triazolo[4,3-a]pyridin-3(2H)-one] | 1.45 nM |
| O=C(C1CCCc2nn(Cc3ccc(Cl)c(C(F)(F)F)c3)c(=O)n21)N1CCC(F)(F)C1 (racemic) [Example 43] | 1.9 nM |
| O=C(C1CCCc2nn(Cc3cccc(Cl)c3)c(=O)n21)N1CCC(F)(F)C1 (racemic) [Example 44, (5RS)-2-(3-Chlorobenzyl)-5-[(3,3-difluoropyrrolidin-1-yl)carbonyl]-5,6,7,8-tetrahydro[1,2,4]triazolo[4,3-a]pyridin-3(2H)-one] | 2.1 nM |
| O=C(C1CCCc2nn(Cc3ccc(Cl)c(Cl)c3)c(=O)n21)N1CCC(F)(F)C1 (racemic) [Example 45, (5RS)-2-(3,4-Dichlorobenzyl)-5-[(3,3-difluoropyrrolidin-1-yl)carbonyl]-5,6,7,8-tetrahydro[1,2,4]triazolo[4,3-a]pyridin-3(2H)-one] | 1.6 nM |
| COc1ccc(Cn2nc3n(c2=O)C(C(=O)N2CCCC2)CCC3)cc1Cl (racemic) [Example 46, (5RS)-2-(3-Chloro-4-methoxybenzyl)-5-(pyrrolidin-1-ylcarbonyl)-5,6,7,8-tetrahydro[1,2,4]triazolo[4,3-a]pyridin-3(2H)-one] | 0.95 nM |
| O=C(C1CCCc2nn(Cc3cccc(C(F)(F)F)c3)c(=O)n21)N1CCC(F)(F)C1 (racemic) [Example 47, (5RS)-5-[(3,3-Difluoropyrrolidin-1-yl)carbonyl]-2-[3-(trifluoromethyl)benzyl]-5,6,7,8-tetrahydro[1,2,4]triazolo[4,3-a]pyridin-3(2H)-one] | 1.6 nM |
| COc1cccc(Cn2nc3n(c2=O)C(C(=O)N2CCC(F)(F)C2)CCC3)c1 (racemic) [Example 48, (5RS)-5-[(3,3-Difluoropyrrolidin-1-yl)carbonyl]-2-(3-methoxybenzyl)-5,6,7,8-tetrahydro[1,2,4]triazolo[4,3-a]pyridin-3(2H)-one] | 5 nM |
| COc1ccc(Cn2nc3n(c2=O)C(C(=O)N2CCC(F)(F)C2)CCC3)cc1Cl (racemic) [Example 49, (5RS)-2-(3-Chloro-4-methoxybenzyl)-5-[(3,3-difluoropyrrolidin-1-yl)carbonyl]-5,6,7,8-tetrahydro[1,2,4]triazolo[4,3-a]pyridin-3(2H)-one] | 1.75 nM |
| O=C(C1CCCc2nn(Cc3ccc(Cl)s3)c(=O)n21)N1CCCC1 (racemic) [Example 53, (5RS)-2-[(5-Chloro-2-thienyl)methyl]-5-(pyrrolidin-1-ylcarbonyl)-5,6,7,8-tetrahydro[1,2,4]triazolo[4,3-a]pyridin-3(2H)-one] | 0.71 nM |
| O=C(C1CCCc2nn(Cc3ccc(Cl)s3)c(=O)n21)N1CCC(F)(F)C1 (racemic) [Example 54, (5RS)-2-[(5-Chloro-2-thienyl)methyl]-5-[(3,3-difluoropyrrolidin-1-yl)carbonyl]-5,6,7,8-tetrahydro[1,2,4]triazolo[4,3-a]pyridin-3(2H)-one] | 1.3 nM |
| O=C(C1CCCc2nn(Cc3cccc(F)c3)c(=O)n21)N1CCC(F)(F)C1 (racemic) [Example 56, (5RS)-5-[(3,3-Difluoropyrrolidin-1-yl)carbonyl]-2-(3-fluorobenzyl)-5,6,7,8-tetrahydro[1,2,4]triazolo[4,3-a]pyridin-3(2H)-one] | 5.6 nM |
| Cc1ccc(CCn2nc3n(c2=O)C(C(=O)N2CCCC2)CCC3)cc1 (racemic) [Example 57, (5RS)-2-[2-(4-Methylphenyl)ethyl]-5-(pyrrolidin-1-ylcarbonyl)-5,6,7,8-tetrahydro[1,2,4]triazolo[4,3-a]pyridin-3(2H)-one] | 4.1 nM |
| Cc1ccccc1Cn1nc2n(c1=O)C(C(=O)N1CCCC1)CCC2 (racemic) [Example 58, (5RS)-2-(2-Methylbenzyl)-5-(pyrrolidin-1-ylcarbonyl)-5,6,7,8-tetrahydro[1,2,4]triazolo[4,3-a]pyridin-3(2H)-one] | 4 nM |
| O=C(C1CCCc2nn(Cc3ccnc(Cl)c3)c(=O)n21)N1CCCC1 (racemic) [Example 59, (5RS)-2-[(2-Chloropyridin-4-yl)methyl]-5-(pyrrolidin-1-ylcarbonyl)-5,6,7,8-tetrahydro[1,2,4]triazolo[4,3-a]pyridin-3(2H)-one] | 12.2 nM |
| Cc1nonc1Cn1nc2n(c1=O)C(C(=O)N1CCCC1)CCC2 (racemic) [Example 60, (5RS)-2-[(4-Methyl-1,2,5-oxadiazol-3-yl)methyl]-5-(pyrrolidin-1-ylcarbonyl)-5,6,7,8-tetrahydro[1,2,4]triazolo[4,3-a]pyridin-3(2H)-one] | 18.5 nM |
| Cc1cc(Cn2nc3n(c2=O)C(C(=O)N2CCCC2)CCC3)no1 (racemic) [Example 61, (5RS)-2-[(5-Methyl-1,2-oxazol-3-yl)methyl]-5-(pyrrolidin-1-ylcarbonyl)-5,6,7,8-tetrahydro[1,2,4]triazolo[4,3-a]pyridin-3(2H)-one] | 16 nM |
| Cn1c(Cn2nc3n(c2=O)C(C(=O)N2CCCC2)CCC3)nc2ccccc21 (racemic) [Example 62, (5RS)-2-[(1-Methyl-1H-benzimidazol-2-yl)methyl]-5-(pyrrolidin-1-ylcarbonyl)-5,6,7,8-tetrahydro[1,2,4]triazolo[4,3-a]pyridin-3(2H)-one] | 2 nM |
| COc1ccc(Cn2nc3n(c2=O)C(C(=O)N2CCCC2)CCC3)cc1C(F)(F)F (racemic) [Example 63] | 0.74 nM |
| Cn1ncc2cc(Cn3nc4n(c3=O)C(C(=O)N3CCCC3)CCC4)ccc21 (racemic) [Example 64, (5RS)-2-[(1-Methyl-1H-indazol-5-yl)methyl]-5-(pyrrolidin-1-ylcarbonyl)-5,6,7,8-tetrahydro[1,2,4]triazolo[4,3-a]pyridin-3(2H)-one] | 0.94 nM |
| O=C(C1CCCc2nn(Cc3cc(C(F)(F)F)ccc3C(F)(F)F)c(=O)n21)N1CCCC1 (racemic) [Example 65, (5RS)-2-[2,5-Bis(trifluoromethyl)benzyl]-5-(pyrrolidin-1-ylcarbonyl)-5,6,7,8-tetrahydro[1,2,4]triazolo[4,3-a]pyridin-3(2H)-one] | 1.85 nM |
| O=C(C1CCCc2nn(Cc3ccc(F)c(C(F)(F)F)c3)c(=O)n21)N1CCCC1 (racemic) [Example 66] | 0.38 nM |
| O=C(C1CCCc2nn(Cc3ccc(OC(F)(F)F)c(F)c3)c(=O)n21)N1CCCC1 (racemic) [Example 67, (5RS)-2-[3-Fluoro-4-(trifluoromethoxy)benzyl]-5-(pyrrolidin-1-ylcarbonyl)-5,6,7,8-tetrahydro[1,2,4]triazolo[4,3-a]pyridin-3(2H)-one] | 8.7 nM |
